Consider one compound from publication PMC8750527 (Cancers, 2021).

Series [1] concerns subcutaneous HD-MB03 tumors. Nature of the series: Subcutaneous HD-MB03 xenografts. To be noted: oral, thrice a week. The format is in vivo, mouse. The method, then:
For subcutaneous xenograft experiments, tumor cells expressing the luciferase (350,000 HDMB-Luc cells and 1.10^6 DAOY-Luc cells) were resuspended in 200 µL of 5 µg/mL Matrigel (Corning Inc., Corning, NY, USA) and injected subcutaneously in the flank of 5-week-old Rj:NMRI-Foxn1 nude (nu/nu) female mice (Janvier Labs, Le Genest-Saint-Isle, France). Saline solution (NaCl 0.9M; 100 µL) containing 30 mg/mL D-Luciferin (Perkin Elmer, Wellesley, MA, USA) was injected intraperitoneally in the animals and the bioluminescence was quantified using an In Vivo Imaging System (Perkin Elmer, Wellesley, MA, USA) according to the manufacturer’s instructions. Tumor volume (V = L × l2 × 0.52) was determined with a caliper and the endpoint was determined as a tumor volume of 1000 mm^3. […] The mice were sacrificed when the tumor reached 1000 mm^3. […] No statistical methods were used to predetermine the sample size of the experiments. Animal facility availability and cost were used to determine sample sizes. Two independent cohorts of five mice per group were used for the tumor growth experiment with HD-MB03 cells and one cohort of five mice per group was used for the experiment with DAOY cells. Animal experiments were carried out in strict accordance with the recommendations in the Guide for the Care and Use of Laboratory Animals. Our experiments were approved by Direction de l’Action Sanitaire et Sociale of the Principality of Monaco and the ethics committee of Centre Scientifique de Monaco.
(§1) The growth rate of the tumors generated with HD-MB03 cells was determined using a linear regression method applied to the growth curves between the sizes of 400 mm^3 up to the endpoint using Prism 5 (Graphpad Software Inc., San Diego, CA, USA).
Tumor samples were recovered from the animals and embedded in the OCT compound according to the manufacturer’s protocol (Thermo Fisher Scientific Inc., Waltham, MA, USA). After that, 5 µm thin sections were prepared with a cryostat (Leica Microsystems, Wetzlar, Germany). Incubation was carried out with the following antibodies diluted at 1:1000 in TBS supplemented with 1% horse serum and 1% BSA for 20 min at room temperature: anti-Ki67 (cat. number ab16667, Abcam, Cambridge, UK), anti-CD31 (cat. number 550274, BD Biosciences, Frankton Lake, NJ, USA) or anti-αSMA (cat. number A2547, Merck Millipore, Burlington, MA, USA). The preparations were then washed with TBS–0.025% Triton, incubated with anti-rabbit Alexa488 and anti-mouse Alex-555-coupled secondary antibodies (Cell Signaling Technology, Danvers, MA, USA), washed with TBS–0.025% Triton, and the nuclei were counterstained with Hoechst33342 (Thermo Fisher Scientific, Waltham, MA, USA). Fluorescence images of the cells were taken with a DMI400 inverted microscope equipped with a 40× objective (Leica Microsystemes, Nanterre, France) and a Zyla 5.5 camera (Andor Technologies, Belfast, UK) powered by the Micromanager software. At least one cross-section of nonoverlapping images of each tumor was acquired. All the images were then quantified with the CellProfiler 3.0 software.

For series [2], the system named is children presenting with refractory or recurrent tumors. Particulars: phase I study ref 20; cited from earlier work.
Series [3] relates to C8-D1A astrocytes. The series is described as follows: Cell viability, propidium iodine incorporation, C8-D1A. It is filed as cell-based, murine. Particulars: 48 h; axitinib, cabozantinib, sunitinib 5 µM, etoposide 1 µM. As for the experimental part:
(§2) Cell viability assays were conducted using a propidium iodine incorporation technique with an ADAM-sHIT automated cell counter (NanoEnTek, Gyeonggi-do, Korea) according to the manufacturer’s protocol.

The subject of series [4] is subcutaneous DAOY tumors. To be noted: oral, thrice a week; axitinib 50 mg/kg, etoposide 30 mg/kg, combination 25 + 15 mg/kg. As for the experimental part: For subcutaneous xenograft experiments, tumor cells expressing the luciferase (350,000 HDMB-Luc cells and 1.10^6 DAOY-Luc cells) were resuspended in 200 µL of 5 µg/mL Matrigel (Corning Inc., Corning, NY, USA) and injected subcutaneously in the flank of 5-week-old Rj:NMRI-Foxn1 nude (nu/nu) female mice (Janvier Labs, Le Genest-Saint-Isle, France). Saline solution (NaCl 0.9M; 100 µL) containing 30 mg/mL D-Luciferin (Perkin Elmer, Wellesley, MA, USA) was injected intraperitoneally in the animals and the bioluminescence was quantified using an In Vivo Imaging System (Perkin Elmer, Wellesley, MA, USA) according to the manufacturer’s instructions. Tumor volume (V = L × l2 × 0.52) was determined with a caliper and the endpoint was determined as a tumor volume of 1000 mm^3. […] The mice were sacrificed when the tumor reached 1000 mm^3. […]
as §1
Tumor samples were recovered from the animals and embedded in the OCT compound according to the manufacturer’s protocol (Thermo Fisher Scientific Inc., Waltham, MA, USA). […] All the images were then quantified with the CellProfiler 3.0 software.

The test system of series [5] is C8-D1A/HD-MB03 mixed spheroids. Nature of the series: 3D mixed spheroids of astrocytes and MB cells. The format is cell-based. To be noted: 7 days; axitinib 5 µM or etoposide 1 µM. The method, then:
C8-D1A cells were stained with the green fluorescent probe neuro-DiO (cat. number 60015, Biotium, Fremont, CA, USA) according to the manufacturer’s protocol. C8-D1A-neuroDio cells (150,000) and HD-MB03-mCherry or DAOY-mCherry cells (50,000) were plated in 12-well plates. […] Fluorescence images of the cells were taken with a DMI400 inverted microscope (Leica Microsystemes SAS, Nanterre, France) equipped with a 40× objective and a Zyla 5.5 camera (Andor Technologies, Belfast, UK). The cells were then trypsinized and the number of both cell types was quantified using a Melody FACS (BD Biosciences, Frankton Lake, NJ, USA) with a 488 nm laser beam. Analysis of the FACS data was conducted with the Flowjo software (Tree Star Inc., Ashland, OR, USA).
Two thousand cells were seeded in ultralow-adhesion 96-well plates (Corning Inc., Corning, NY, USA). […] Pictures were taken with an AMG Evos microscope 40× objective (Thermo Fisher Scientific Inc, Waltham, MA, USA) and the spheroid areas were measured using the ImageJ software (NIH, Bethesda, MD, USA).

For series [6], the system named is HDF. Nature of the series: Cell viability, propidium iodine incorporation, HDF. To be noted: 48 h; axitinib, cabozantinib 5 µM, etoposide 1 µM. The format is cell-based, human. As for the experimental part:
as §2

In series [7] the test system is DAOY. The series is described as follows: MTT assay, 48 h exposure, DAOY MB cells. It is filed as cell-based, human. To be noted: Homo sapiens, Daoy; Table 1; MTT, 48 h exposure; mean ± SEM. The method, then:
HDF (3000 cells), C8-D1A (5000 cells), D458 (5000 cells), DAOY (2000 cells), HD-MB03 (10,000 cells) and CHLA-01-Med (10,000 cells) were seeded at an approximate confluency of 50% in 96-well plates (Corning Inc., Corning, NY, USA) in 100 µL medium per well. A range from 50 nM to 150 µM of every drug was tested. The effects of the antiangiogenic compounds were measured using a 3-[4,5-dimethylthiazol-2yl]-diphenyltetrazolium bromide (MTT) colorimetric assay (Sigma, Lyon, France) according to the manufacturer’s instructions. When applicable, IC50 was calculated using the nonlinear regression method of the Prism 5 software (Graphpad Software Inc., San Diego, CA, USA). […] An MTT assay was conducted as described above to assess the fitness of the cells.
In general terms: Formazan colour is commonly taken as a measure of viable cells.

[8] abbreviates: axitinib 50 mg/kg, etoposide 30 mg/kg, combination 25 + 15 mg/kg.

Regarding `CNC(=O)c1ccccc1Sc1ccc2c(/C=C/c3ccccn3)n[nH]c2c1` [Axitinib, axitinib], in series [1], the “number of endothelial cells (CD31-positive) and/or pericytes/cancer-associated fibroblasts (αSMA-positive)” value is “did not impact”; the “surface of necrotic areas” value is given as “increased the surface of necrotic areas”; the “tumor growth rates (linear regression, growth phase)” value is “reduced”. For the same compound, in series [1] (setting [8]), the “median time to reach the endpoint volume (1000 mm^3)” value stood at 18 days and the “range of time to reach the endpoint volume (1000 mm^3)” value is 13 to 63 days. Also, in series [2], the “maximum tolerated and recommended dose in children” value is reported as 2.4 mg/m^2. In series [3], the “viability of C8-D1A normal cells” value is “no effect on the viability”. In addition, the “tumor growth (lognormal mathematical modelling)” value in series [4] is “did not impair tumor growth”. For the same compound, the “size of mixed spheroids” value in series [5] is reported as “strong decrease in the size of spheroids”. In addition, the “viability of HDF normal cells” value in series [6] is reported as “no effect on the viability”. For the same compound, in series [7], the IC50 – broadly, the concentration that gives 50% inhibition – worked out at 2.3 ± 1.5 µM.
